In brackets after ≈: the same amount, converted by molar mass. Activity calls are given as the source filed them. No cut-off for these calls is given here.
Legend:
[1] = system: HepG2 2.2.15; assay: Cytotoxicity against human HepG2.2.15 cells assessed as reduction in cell viability incubated for 72 hrs by cell titer-glo assay; format: functional
[2] = Plasma protein binding in human by LC-MS/MS analysis; format: ADME, cell-free; settings: read-out: PPB (converted)
[3] = Cmax in nude mouse at 2 mg/kg, po measured up to 24 hrs by LC-MS/MS analysis; format: ADME, organism-based; design: route oral, dose 2 mg/kg, time <=24; settings: in vivo
[4] = Solubility of the compound in FaSSIF using amorphous form of sample by LC-MS/MS analysis; format: physicochemical
[5] = Microsomal stability in mouse liver microsome assessed as half life measured up to 24 hrs by LC-MS/MS analysis; format: ADME; settings: liver microsomes
[6] = Apparent permeability of the compound across apical to basolateral side in […] measured up to 24 hrs by LC-MS/MS analysis; format: ADME, cell-based
[7] = Cmax in nude mouse at 10 mg/kg, po measured up to 24 hrs by LC-MS/MS analysis; format: ADME, organism-based; design: route oral, dose 10 mg/kg, time <=24; settings: in vivo
[8] = Clearance in nude mouse at 1 mg/kg, iv measured up to 24 hrs by LC-MS/MS analysis; format: ADME, organism-based; settings: in vivo
[9] = AUC(0 to 24 hrs) in nude mouse at 2 mg/kg, po measured up to 24 hrs by LC-MS/MS analysis; format: ADME, organism-based; design: route oral, dose 2 mg/kg, time <=24; settings: in vivo
[10] = Plasma protein binding in mouse by LC-MS/MS analysis; format: ADME, cell-free; settings: read-out: PPB (converted)
[11] = Microsomal stability in rat liver microsome assessed as half life measured up to 24 hrs by LC-MS/MS analysis; format: ADME; settings: liver microsomes
[12] = Plasma protein binding in rat by LC-MS/MS analysis; format: ADME, cell-free; settings: read-out: PPB (converted)
[13] = molecular target: Voltage-gated inwardly rectifying potassium channel KCNH2 (Homo sapiens, UniProt Q12809); assay: Inhibition of human ERG by LC-MS/MS analysis; format: toxicity
Chain of Voltage-gated inwardly rectifying potassium channel KCNH2 (Q12809 whole entry): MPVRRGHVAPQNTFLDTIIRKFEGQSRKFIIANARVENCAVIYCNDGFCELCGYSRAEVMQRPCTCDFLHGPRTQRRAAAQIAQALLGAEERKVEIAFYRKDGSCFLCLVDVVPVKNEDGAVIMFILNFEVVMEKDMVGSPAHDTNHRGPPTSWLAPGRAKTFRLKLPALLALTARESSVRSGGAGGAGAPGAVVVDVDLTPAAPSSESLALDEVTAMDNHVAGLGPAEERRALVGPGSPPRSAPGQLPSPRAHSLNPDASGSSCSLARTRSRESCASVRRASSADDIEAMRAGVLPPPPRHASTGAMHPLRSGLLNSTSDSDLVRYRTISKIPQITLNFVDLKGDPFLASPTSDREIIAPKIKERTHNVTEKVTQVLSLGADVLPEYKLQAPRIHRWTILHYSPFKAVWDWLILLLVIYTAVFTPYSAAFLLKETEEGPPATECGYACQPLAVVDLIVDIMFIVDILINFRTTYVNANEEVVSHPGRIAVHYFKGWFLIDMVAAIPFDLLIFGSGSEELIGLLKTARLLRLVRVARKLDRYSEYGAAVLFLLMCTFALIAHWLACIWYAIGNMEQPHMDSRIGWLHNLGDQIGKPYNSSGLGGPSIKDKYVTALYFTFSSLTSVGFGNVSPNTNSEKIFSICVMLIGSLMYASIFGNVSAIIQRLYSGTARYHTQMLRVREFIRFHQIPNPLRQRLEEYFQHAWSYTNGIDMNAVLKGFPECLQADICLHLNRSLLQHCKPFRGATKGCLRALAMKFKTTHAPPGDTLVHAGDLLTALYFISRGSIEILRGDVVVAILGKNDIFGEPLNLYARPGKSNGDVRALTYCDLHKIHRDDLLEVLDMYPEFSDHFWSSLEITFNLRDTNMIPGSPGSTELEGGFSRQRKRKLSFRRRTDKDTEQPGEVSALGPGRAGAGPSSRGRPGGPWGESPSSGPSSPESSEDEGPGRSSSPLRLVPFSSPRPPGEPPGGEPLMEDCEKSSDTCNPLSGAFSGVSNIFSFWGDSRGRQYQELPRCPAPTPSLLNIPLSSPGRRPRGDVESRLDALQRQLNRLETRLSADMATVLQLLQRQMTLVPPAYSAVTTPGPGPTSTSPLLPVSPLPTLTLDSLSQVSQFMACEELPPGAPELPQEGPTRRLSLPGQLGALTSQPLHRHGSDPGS

[14] = molecular target: T1, Cytochrome P450 1A2 (Homo sapiens, UniProt P05177); assay: Inhibition of recombinant human CYP1A2 by LC-MS/MS analysis; format: ADME
T1 sequence (P05177 whole entry): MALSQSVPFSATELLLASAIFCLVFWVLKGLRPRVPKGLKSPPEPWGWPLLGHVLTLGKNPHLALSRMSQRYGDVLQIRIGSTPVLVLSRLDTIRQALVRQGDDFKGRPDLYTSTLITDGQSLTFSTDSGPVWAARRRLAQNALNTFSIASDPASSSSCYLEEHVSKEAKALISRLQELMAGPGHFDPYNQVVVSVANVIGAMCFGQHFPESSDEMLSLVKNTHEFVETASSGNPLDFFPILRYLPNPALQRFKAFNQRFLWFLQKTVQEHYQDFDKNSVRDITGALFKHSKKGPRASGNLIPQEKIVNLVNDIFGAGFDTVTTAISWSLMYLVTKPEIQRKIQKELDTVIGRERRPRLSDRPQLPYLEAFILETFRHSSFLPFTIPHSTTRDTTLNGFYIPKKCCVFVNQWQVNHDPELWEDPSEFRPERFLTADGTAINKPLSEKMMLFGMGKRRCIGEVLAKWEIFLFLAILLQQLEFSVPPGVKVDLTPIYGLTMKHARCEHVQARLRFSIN

[15] = system: Hepatitis B virus; assay: Antiviral activity against HBV infected in C57BL/6 mouse assessed as reduction on HBeAg level at 3 to 30 mg/kg,po BID for 28 days by ELISA; format: functional, organism-based; settings: dose 3-30 mg/kg, time 28.0 day
[16] = molecular target: Cytochrome P450 2C19 (Homo sapiens, UniProt P33261); assay: Inhibition of recombinant human CYP2C19 by LC-MS/MS analysis; format: ADME
Chain of Cytochrome P450 2C19 (P33261 whole entry): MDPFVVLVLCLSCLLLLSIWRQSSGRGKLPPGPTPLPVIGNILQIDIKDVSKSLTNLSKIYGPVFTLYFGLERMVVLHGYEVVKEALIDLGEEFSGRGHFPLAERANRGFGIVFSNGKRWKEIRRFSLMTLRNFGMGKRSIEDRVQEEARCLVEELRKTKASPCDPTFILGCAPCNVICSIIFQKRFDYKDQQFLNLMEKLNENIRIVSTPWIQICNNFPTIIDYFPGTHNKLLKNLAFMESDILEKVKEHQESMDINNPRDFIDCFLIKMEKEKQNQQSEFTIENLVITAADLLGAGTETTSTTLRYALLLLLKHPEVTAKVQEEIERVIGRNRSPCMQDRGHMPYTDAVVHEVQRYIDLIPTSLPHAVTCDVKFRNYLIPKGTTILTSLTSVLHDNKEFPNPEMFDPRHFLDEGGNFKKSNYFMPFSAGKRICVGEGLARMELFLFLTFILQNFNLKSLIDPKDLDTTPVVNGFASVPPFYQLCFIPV

[17] = molecular target: T2, Cytochrome P450 3A4 (Homo sapiens, UniProt P08684); assay: Inhibition of recombinant human CYP3A4 using midazolam as substrate by LC-MS/MS analysis; format: ADME
T2 sequence (P08684 whole entry): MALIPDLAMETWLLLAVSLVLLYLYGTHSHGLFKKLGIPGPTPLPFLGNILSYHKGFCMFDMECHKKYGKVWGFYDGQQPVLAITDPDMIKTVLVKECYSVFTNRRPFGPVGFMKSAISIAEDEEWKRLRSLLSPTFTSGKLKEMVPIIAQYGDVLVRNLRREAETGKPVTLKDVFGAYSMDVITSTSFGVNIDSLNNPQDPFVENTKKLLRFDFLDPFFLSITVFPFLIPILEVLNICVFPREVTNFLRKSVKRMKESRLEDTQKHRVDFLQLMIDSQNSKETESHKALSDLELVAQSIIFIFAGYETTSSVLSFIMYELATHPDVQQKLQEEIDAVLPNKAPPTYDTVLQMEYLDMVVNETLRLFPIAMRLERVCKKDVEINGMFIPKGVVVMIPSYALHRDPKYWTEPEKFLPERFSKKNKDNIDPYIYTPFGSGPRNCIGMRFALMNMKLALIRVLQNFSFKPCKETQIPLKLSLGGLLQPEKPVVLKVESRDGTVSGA

[18] = Efflux ratio of apparent permeability across basolateral to apical side over apical to basolateral side in […] by LC-MS/MS analysis; format: ADME, cell-based
[19] = Half life in nude mouse at 100 mg/kg, po measured up to 24 hrs by LC-MS/MS analysis; format: ADME, organism-based; settings: in vivo
[20] = AUC(0 to 24 hrs) in nude mouse at 100 mg/kg, po measured up to 24 hrs by LC-MS/MS analysis; format: ADME, organism-based; design: route oral, dose 100 mg/kg, time <=24; settings: in vivo
[21] = molecular target: Cytochrome P450 2C9 (Homo sapiens, UniProt P11712); assay: Inhibition of recombinant human CYP2C9 by LC-MS/MS analysis; format: ADME
Chain of Cytochrome P450 2C9 (P11712 whole entry): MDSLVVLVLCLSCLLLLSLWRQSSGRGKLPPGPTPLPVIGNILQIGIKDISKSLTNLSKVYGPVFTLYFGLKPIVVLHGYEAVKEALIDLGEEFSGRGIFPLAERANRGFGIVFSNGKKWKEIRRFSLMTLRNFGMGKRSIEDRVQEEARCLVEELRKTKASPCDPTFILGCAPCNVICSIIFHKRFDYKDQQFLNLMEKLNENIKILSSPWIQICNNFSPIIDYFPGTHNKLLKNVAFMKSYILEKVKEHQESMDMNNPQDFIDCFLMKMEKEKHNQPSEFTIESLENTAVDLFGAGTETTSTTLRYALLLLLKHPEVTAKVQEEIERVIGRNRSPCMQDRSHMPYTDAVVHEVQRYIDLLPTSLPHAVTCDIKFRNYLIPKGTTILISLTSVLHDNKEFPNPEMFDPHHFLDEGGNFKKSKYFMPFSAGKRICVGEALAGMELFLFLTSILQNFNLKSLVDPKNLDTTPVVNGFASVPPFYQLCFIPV

[22] = Solubility of the compound in phosphate buffer at pH 7.4 using amorphous form of sample by LC-MS/MS analysis; format: physicochemical
[23] = system: Hepatitis B virus; assay: Antiviral activity against HBV infected in C57BL/6 mouse assessed as HBV DNA reduction at 3 to 30 mg/kg,po BID for 28 days by qPCR method; format: functional, organism-based; settings: dose 3-30 mg/kg, time 28.0 day
[24] = system: Hepatitis B virus; assay: Antiviral activity against HBV infected in C57BL/6 mouse assessed as reduction on HBsAg level at 3 to 30 mg/kg,po BID for 28 days by ELISA; format: functional, organism-based; settings: dose 3-30 mg/kg, time 28.0 day
[25] = Lipophilicity, logD of compound at pH 7.4 by LC-MS/MS analysis; format: physicochemical; settings: buffer
[26] = AUC(0 to 24 hrs) in Sprague-Dawley rat at 2 mg/kg, po measured up to 24 hrs by LC-MS/MS analysis; format: ADME, organism-based; design: route oral, dose 2 mg/kg, time <=24; settings: in vivo
[27] = Apparent permeability of the compound across basolateral to apical side in […] measured up to 24 hrs by LC-MS/MS analysis; format: ADME, cell-based
[28] = Clearance in Sprague-Dawley rat at 1 mg/kg, iv measured up to 24 hrs by LC-MS/MS analysis; format: ADME, organism-based; settings: in vivo
[29] = Half life in nude mouse at 2 mg/kg, po measured up to 24 hrs by LC-MS/MS analysis; format: ADME, organism-based; settings: in vivo
[30] = Plasma protein binding in dog by LC-MS/MS analysis; format: ADME, cell-free, Canis lupus familiaris; settings: read-out: PPB (converted)
[31] = Half life in nude mouse at 10 mg/kg, po measured up to 24 hrs by LC-MS/MS analysis; format: ADME, organism-based; settings: in vivo
[32] = molecular target: Cytochrome P450 2D6 (Homo sapiens, UniProt P10635); assay: Inhibition of recombinant human CYP2D6 by LC-MS/MS analysis; format: ADME
Chain of Cytochrome P450 2D6 (P10635 whole entry): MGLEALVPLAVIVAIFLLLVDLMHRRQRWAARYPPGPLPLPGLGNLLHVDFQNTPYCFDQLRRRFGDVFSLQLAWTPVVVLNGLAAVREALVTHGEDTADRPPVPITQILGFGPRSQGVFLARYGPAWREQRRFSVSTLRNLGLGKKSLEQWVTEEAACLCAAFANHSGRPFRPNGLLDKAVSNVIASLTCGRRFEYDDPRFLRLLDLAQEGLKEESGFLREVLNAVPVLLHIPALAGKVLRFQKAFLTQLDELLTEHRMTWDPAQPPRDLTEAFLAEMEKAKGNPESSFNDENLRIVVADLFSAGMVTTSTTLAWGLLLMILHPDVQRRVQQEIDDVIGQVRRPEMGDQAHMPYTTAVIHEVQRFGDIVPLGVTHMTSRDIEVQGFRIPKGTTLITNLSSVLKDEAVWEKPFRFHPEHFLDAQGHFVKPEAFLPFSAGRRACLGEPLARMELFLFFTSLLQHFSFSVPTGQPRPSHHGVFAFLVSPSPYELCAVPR

[33] = Half life in Beagle dog at 0.5 mg/kg, po measured up to 24 hrs by LC-MS/MS analysis; format: ADME, organism-based, Canis lupus familiaris; settings: in vivo
[34] = AUC(0 to 24 hrs) in Beagle dog at 0.5 mg/kg, po measured up to 24 hrs by LC-MS/MS analysis; format: ADME, organism-based, Canis lupus familiaris; design: route oral, dose 0.5 mg/kg, time <=24; settings: in vivo
[35] = Cmax in nude mouse at 100 mg/kg, po measured up to 24 hrs by LC-MS/MS analysis; format: ADME, organism-based; design: route oral, dose 100 mg/kg, time <=24; settings: in vivo
[36] = Clearance in Beagle dog at 1 mg/kg, iv measured up to 24 hrs by LC-MS/MS analysis; format: ADME, organism-based, Canis lupus familiaris; settings: in vivo
[37] = molecular target: T2, Cytochrome P450 3A4; assay: Inhibition of recombinant human CYP3A4 using testosterone as substrate by LC-MS/MS analysis; format: ADME
[38] = Cmax in Beagle dog at 0.5 mg/kg, po measured up to 24 hrs by LC-MS/MS analysis; format: ADME, organism-based, Canis lupus familiaris; design: route oral, dose 0.5 mg/kg, time <=24; settings: in vivo
[39] = Microsomal stability in dog liver microsome assessed as half life measured up to 24 hrs by LC-MS/MS analysis; format: ADME, Canis lupus familiaris; settings: liver microsomes
[40] = Microsomal stability in human liver microsome assessed as half life measured up to 24 hrs by LC-MS/MS analysis; format: ADME; settings: liver microsomes
[41] = Cmax in Sprague-Dawley rat at 2 mg/kg, po measured up to 24 hrs by LC-MS/MS analysis; format: ADME, organism-based; design: route oral, dose 2 mg/kg, time <=24; settings: in vivo
[42] = AUC(0 to 24 hrs) in nude mouse at 10 mg/kg, po measured up to 24 hrs by LC-MS/MS analysis; format: ADME, organism-based; design: route oral, dose 10 mg/kg, time <=24; settings: in vivo
[43] = system: Hepatitis B virus; assay: Antiviral activity against HBV infected in C57BL/6 mouse assessed as reduction on HBsAg level at 10 mg/kg,po BID for 28 days by ELISA; format: functional, organism-based; settings: time 28.0 day
[44] = system: Hepatitis B virus; assay: Antiviral activity against HBV infected in C57BL/6 mouse assessed as reduction on HBeAg level at 10 mg/kg,po BID for 28 days by ELISA; format: functional, organism-based; settings: time 28.0 day
[45] = Half life in Sprague-Dawley rat at 2 mg/kg, po measured up to 24 hrs by LC-MS/MS analysis; format: ADME, organism-based; settings: in vivo

## C[C@H]1Cn2cnc(C(=O)N[C@H](C)C(F)(F)F)c2CN1C(=O)Nc1cc(F)nc(F)c1
[1]
  CC50: > 100 µM

## C[C@H]1Cn2ncc(C(=O)N[C@H](C)C(F)(F)F)c2CN1C(=O)Nc1ccc(F)c(C#N)c1
[1]
  CC50: > 100 µM

## C[C@H]1Cn2cnc(C(=O)N[C@H](C)C(F)(F)F)c2CN1C(=O)Nc1ccc(F)c(C#N)c1
[2]
  fraction unbound: 0.113
[3]
  Cmax: 1120 ng/mL
[4]
  solubility: 1640 µM (≈ 718 µg/mL)
[5]
  half-life: > 120 min
[6]
  Papp A→B at 24 h: 10.9 ×10⁻⁶ cm/s
[7]
  Cmax: 4600 ng/mL
[8]
  clearance: 5.3 mL/min/kg
[9]
  AUC: 7.16 µg/mL/h
[10]
  fraction unbound: 0.12
[11]
  half-life: > 67 min
[12]
  fraction unbound: 0.244
[13]
  IC50: > 30 µM
[14]
  IC50: > 30 µM
[15]
  Activity: inactive
[16]
  IC50: > 30 µM
[17]
  IC50: > 30 µM
[18]
  efflux ratio: 4.73
[1]
  CC50: > 100 µM
[19]
  half-life: 298 min
[20]
  AUC: 28.9 µg/mL/h
[21]
  IC50: > 30 µM
[22]
  solubility: 106 µM (≈ 46.5 µg/mL)
[23]
  Activity: Dose-Dependent Effect
[24]
  Activity: inactive
[25]
  logD: 2.27
[26]
  AUC: 7.98 µg/mL/h
[27]
  Papp B→A at 24 h: 51.4 ×10⁻⁶ cm/s
[28]
  clearance: 4.5 mL/min/kg
[29]
  half-life: 302 min
[30]
  fraction unbound: 0.23
[31]
  half-life: 203 min
[32]
  IC50: > 30 µM
[33]
  half-life: 1850 min
[34]
  AUC: 9.01 µg/mL/h
[35]
  Cmax: 22200 ng/mL
[36]
  clearance: 1.1 mL/min/kg
[37]
  IC50: > 30 µM
[38]
  Cmax: 559 ng/mL
[39]
  half-life: > 139 min
[40]
  half-life: > 139 min
[41]
  Cmax: 597 ng/mL
[42]
  AUC: 24.4 µg/mL/h

## C[C@H](NS(=O)(=O)c1cc(C(=O)Nc2ccc(F)c(C#N)c2)n(C)c1)C(F)(F)F
[43]
  Activity: inactive
[44]
  Activity: inactive

## C[C@H]1Cn2cnc(C(=O)N[C@H](C)C(F)(F)F)c2CN1C(=O)Nc1ccc(F)c(F)c1
[1]
  CC50: 60.9 µM

## C[C@H]1Cn2ncc(C(=O)N[C@H](C)C(F)(F)F)c2CN1C(=O)Nc1ccc(F)c(F)c1
[1]
  CC50: > 100 µM

## Cc1cc(NC(=O)N2Cc3c(C(=O)N[C@H](C)C(F)(F)F)ncn3C[C@@H]2C)ccc1F
[1]
  CC50: > 100 µM
[45]
  half-life: 232 min
[26]
  AUC: 2.12 µg/mL/h
[28]
  clearance: 26.6 mL/min/kg
[41]
  Cmax: 492 ng/mL

— ChEMBL document CHEMBL5046309, “Discovery of SHR5133, a Highly Potent and Novel HBV Capsid Assembly Modulator” (ACS Med Chem Lett, 2022)
